In ChEMBL document CHEMBL5316263, “Structure-Based Discovery of Selective Histone Deacetylase 8 Degraders with Potent Anticancer Activity” (J Med Chem, 2023):
Active and inactive are the calls of the source. The rule behind the calls is not given here.

How the values were obtained:
[1] = test system: A549; assay: Induction of apoptosis in human A549 cells assessed as viable cells at 20 uM incubated for 72 hrs by annexin V-FITC staining based flow cytometry (reference value: 99.9%); assay type: functional; conditions: read-out: Activity
[2] = molecular target: T1, Protein cereblon/Histone deacetylase 8 (Homo sapiens) (UniProt Q9BY41+Q96SW2); assay: Protac activity at CRBN/HDAC8 in human HBEC3-KT cells at 0.1 to 10 uM measured after 20 hrs by Western blot analysis; assay type: cell-based; conditions: dose 0.1-10 µM
[3] = test system: A549; assay: Downregulation of COMMD1 in human A549 cells measured after 20 hrs by proteomic analysis; assay type: functional, cell-based
[4] = test system: A549; assay: Inhibition of DNA damage repair in human A549 cells assessed as reduction in number of gamma-H2AX foci at 5 uM incubated for 24 hrs followed by irradiation for 4 hrs by immunofluorescence staining based analysis; assay type: functional, cell-based
[5] = molecular target: T1, Protein cereblon/Histone deacetylase 8 (Homo sapiens); assay: Protac activity at CRBN/HDAC8 in human A549 cells assessed as reduction in HDAC8 protein levels at 10 uM measured after 16 hrs by Western blot analysis; assay type: cell-based
[6] = test system: A549; assay: Downregulation of LAMTOR4 in human A549 cells measured after 20 hrs by proteomic analysis; assay type: functional, cell-based
[7] = test system: A549; assay: Induction of apoptosis in human A549 cells assessed as viable cells at 5 uM incubated with compound followed by irradiation by annexin V-FITC staining based flow cytometry (reference value: 89.7%); assay type: functional; conditions: A549, light or radiation study, read-out: Activity
[8] = test system: A549; assay: Downregulation of IL6ST in human A549 cells measured after 20 hrs by proteomic analysis; assay type: functional, cell-based
[9] = molecular target: T1, Protein cereblon/Histone deacetylase 8 (Homo sapiens); assay: Protac activity at CRBN/HDAC8 in human MDA-MB-231 cells assessed as decrease in SMAD3 protein level at 0.1 to 10 uM by Western blot analysis; assay type: cell-based; conditions: dose 0.1-10 µM
[10] = test system: A549; assay: Induction of apoptosis in human A549 cells incubated for 72 hrs by annexin V-FITC staining based flow cytometry; assay type: functional, cell-based; conditions: dose 1.25-20 µM
[11] = test system: A549; assay: Induction of cell cycle arrest in human A549 cells assessed as accumulation of cells at G2/M phase at 5 uM measured after 48 hrs by propidium iodide staining based flow cytometry analysis; assay type: functional
[12] = molecular target: Cereblon/Ikaros (Homo sapiens) (UniProt Q96SW2+Q13422); assay: Protac activity at CRBN/IKZF1 in human A549 cells assessed as reduction in IKZF1 protein level at 10 uM by Western blot analysis; assay type: cell-based
[13] = test system: A549; assay: Induction of apoptosis in human A549 cells assessed as upregulation of cleaved PARP level measured after 48 hrs by Western blot analysis; assay type: functional, cell-based; conditions: dose 1.25-20 µM
[14] = test system: A549; assay: Effect on CYP1B1 gene in human A549 cells at 10 uM measured after 20 hrs by RNA sequencing analysis; assay type: functional, cell-based
[15] = test system: A549; assay: Induction of apoptosis in human A549 cells assessed as late apoptotic cells at 10 uM incubated for 72 hrs by annexin V-FITC staining based flow cytometry (reference value: 0.048%); assay type: functional
[16] = test system: HCT-116; assay: Inhibition of colony formation in SiRNA mediated HDAC8 knockdown human HCT-116 cells assessed as decrease in cell proliferation at 2.5 to 10 uM measured after 7 to 10 days with media replenishment along with compound for every 3 days by crystal violet staining based analysis; assay type: functional; conditions: dose 2.5-10 µM, time 7-10 day
[17] = test system: A549; assay: Effect on HDAC8 mRNA level in human A549 cells at 10 uM measured after 20 hrs by RNA sequencing analysis; assay type: functional, cell-based
[18] = molecular target: Protein cereblon/NAD-dependent protein deacetylase sirtuin-7 (Homo sapiens) (UniProt Q9NRC8+Q96SW2); assay: Protac activity at CRBN/Sirt7 in human A549 cells assessed as reduction in Sirt7 protein level at 0.1 to 10 uM by Western blot analysis; assay type: cell-based; conditions: dose 0.1-10 µM
[19] = test system: A549; assay: Induction of apoptosis in human A549 cells assessed as necrotic cells at 20 uM incubated for 72 hrs by annexin V-FITC staining based flow cytometry relative to control; assay type: functional
[20] = test system: A549; assay: Induction of apoptosis in human A549 cells assessed as early apoptotic cells at 1.25 uM incubated for 72 hrs by annexin V-FITC staining based flow cytometry (reference value: 0.099%); assay type: functional
[21] = test system: A549; assay: Inhibition of DNA damage repair in human A549 cells assessed as reduction in Ku70 protein level at 5 uM incubated for 24 hrs by immunofluorescence staining based analysis; assay type: functional, cell-based
[22] = test system: A549; assay: Induction of apoptosis in human A549 cells assessed as necrotic cells at 5 uM incubated for 48 hrs by annexin V FITC and propidium iodide based flow cytometry relative to control; assay type: functional
[23] = test system: A549; assay: Effect on MAFK gene in human A549 cells at 10 uM measured after 20 hrs by RNA sequencing analysis; assay type: functional, cell-based
[24] = test system: A549; assay: Induction of apoptosis in human A549 cells assessed as necrotic cells at 1.25 uM incubated for 72 hrs by annexin V-FITC staining based flow cytometry relative to control; assay type: functional
[25] = test system: A549; assay: Downregulation of HSPA6 in human A549 cells measured after 20 hrs by proteomic analysis; assay type: functional, cell-based
[26] = molecular target: T1, Protein cereblon/Histone deacetylase 8 (Homo sapiens); assay: Protac activity at CRBN/HDAC8 in human A549 cells assessed as reduction in HDAC8 protein levels at 10 uM measured after 18 hrs by Western blot analysis relative to control; assay type: cell-based; design: scale not given: the % may be the effect or the level left
[27] = test system: A549; assay: Induction of apoptosis in human A549 cells assessed as early apoptotic cells at 5 uM incubated with compound followed by irradiation by annexin V-FITC staining based flow cytometry (reference value: 6.26%); assay type: functional
[28] = test system: A549; assay: Induction of apoptosis in human A549 cells assessed as upregulation of cleaved caspase-3 level measured after 48 hrs by Western blot analysis; assay type: functional, cell-based; conditions: dose 1.25-20 µM
[29] = test system: A549; assay: Induction of apoptosis in human A549 cells assessed as late apoptotic cells at 5 uM incubated for 72 hrs by annexin V-FITC staining based flow cytometry (reference value: 0.048%); assay type: functional
[30] = test system: A549; assay: Downregulation of RIMKLB in human A549 cells measured after 20 hrs by proteomic analysis; assay type: functional, cell-based
[31] = test system: HCT-116; assay: Inhibition of colony formation in human HCT-116 cells assessed as reduction in cell proliferation at 2.5 to 10 uM measured after 7 to 10 days with media replenishment along with compound for every 3 days by crystal violet staining based analysis; assay type: functional; conditions: dose 2.5-10 µM, time 7-10 day
[32] = test system: A549; assay: Inhibition of DNA damage repair in human A549 cells assessed as decrease in gamma-H2AX level at 5 uM incubated for 24 hrs followed by irradiation for 4 hrs by immunofluorescence staining based analysis; assay type: functional, cell-based
[33] = test system: A549; assay: Induction of apoptosis in human A549 cells assessed as viable cells at 1.25 uM incubated for 72 hrs by annexin V-FITC staining based flow cytometry (reference value: 99.9%); assay type: functional; conditions: read-out: Activity
[34] = test system: A549; assay: Induction of apoptosis in human A549 cells assessed as early apoptotic cells at 5 uM by annexin V-FITC staining based flow cytometry (reference value: 0%); assay type: functional
[35] = molecular target: T1, Protein cereblon/Histone deacetylase 8 (Homo sapiens); assay: In vivo protac activity at CRBN/HDAC8 in human A549 cells xenografted in NOD/SCID mouse assessed as degradation of HDAC8 at 5 mg/kg, ip administered every 5 days measured at day 30 under irradiation condition by Western blot analysis; assay type: functional, organism-based; conditions: time 30.0 day
[36] = test system: HCT-116; assay: Induction of apoptosis in human HCT-116 cells assessed as necrotic cells at 5 uM incubated for 48 hrs by annexin V FITC and propidium iodide based flow cytometry relative to control; assay type: functional

T1 sequence (Q96SW2 whole entry, looked up): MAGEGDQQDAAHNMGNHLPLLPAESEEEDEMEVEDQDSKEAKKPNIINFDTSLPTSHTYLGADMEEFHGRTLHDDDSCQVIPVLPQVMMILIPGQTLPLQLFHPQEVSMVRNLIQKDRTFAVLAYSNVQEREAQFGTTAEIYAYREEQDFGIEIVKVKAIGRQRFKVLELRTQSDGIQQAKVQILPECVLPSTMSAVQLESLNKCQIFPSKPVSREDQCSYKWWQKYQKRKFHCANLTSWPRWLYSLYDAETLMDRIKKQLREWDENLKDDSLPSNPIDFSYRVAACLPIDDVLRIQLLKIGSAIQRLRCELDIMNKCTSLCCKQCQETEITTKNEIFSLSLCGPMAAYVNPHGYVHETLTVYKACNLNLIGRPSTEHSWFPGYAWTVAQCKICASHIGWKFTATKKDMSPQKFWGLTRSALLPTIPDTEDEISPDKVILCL
T1 sequence (Q9BY41 whole entry, looked up): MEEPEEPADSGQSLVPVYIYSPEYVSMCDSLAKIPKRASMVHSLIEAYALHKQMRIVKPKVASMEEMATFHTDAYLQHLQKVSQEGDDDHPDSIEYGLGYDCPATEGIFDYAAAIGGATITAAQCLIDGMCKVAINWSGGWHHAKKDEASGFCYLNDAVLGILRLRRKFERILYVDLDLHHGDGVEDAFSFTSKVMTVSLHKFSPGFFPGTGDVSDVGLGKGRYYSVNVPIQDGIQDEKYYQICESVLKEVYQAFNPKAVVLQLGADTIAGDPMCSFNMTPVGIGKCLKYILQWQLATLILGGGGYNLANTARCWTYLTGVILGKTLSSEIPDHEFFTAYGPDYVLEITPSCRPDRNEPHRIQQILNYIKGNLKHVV
Chain of Protein cereblon/NAD-dependent protein deacetylase sirtuin-7 (Homo sapiens) (Q96SW2 whole entry, looked up): as the sequence (Q96SW2 whole entry, looked up) above
Chain of Protein cereblon/NAD-dependent protein deacetylase sirtuin-7 (Homo sapiens) (Q9NRC8 whole entry, looked up): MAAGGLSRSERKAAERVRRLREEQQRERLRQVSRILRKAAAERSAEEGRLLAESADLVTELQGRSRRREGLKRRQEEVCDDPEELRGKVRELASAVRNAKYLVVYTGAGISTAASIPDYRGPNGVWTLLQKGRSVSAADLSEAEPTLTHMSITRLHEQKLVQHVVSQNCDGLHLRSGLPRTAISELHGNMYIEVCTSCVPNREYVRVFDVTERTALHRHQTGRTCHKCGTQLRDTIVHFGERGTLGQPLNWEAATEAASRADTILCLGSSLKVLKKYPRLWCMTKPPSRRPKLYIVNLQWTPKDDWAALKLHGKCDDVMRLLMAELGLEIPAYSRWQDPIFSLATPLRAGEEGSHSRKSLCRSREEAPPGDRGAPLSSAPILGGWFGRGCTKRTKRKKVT

In the case of O=C1CCC(N2C(=O)c3cccc(NCc4cn(CCOCCOc5ccc(Cn6ccc7ccc(C(=O)NO)cc76)cc5)nn4)c3C2=O)C(=O)N1 (stereo unspecified), the viability at 20 µM [1] is reported as 6.84%, the Activity [2] is reported as “inactive” and the Activity [3] is reported as “Active”. The inhibition [4] was “Active”, the Activity [5] was “Active” and the Activity [6] was “Active”. The viability at 5 µM [7] was 66.3%, the Activity [8] was “Active” and the Activity [9] was “Active”. For the same compound, the Activity [10] was “Dose-Dependent Effect”, the Activity [11] was “Active” and the Activity [12] was “Active”. The Activity [13] was “Dose-Dependent Effect”, the Activity [14] was “Active” and the Activity [15] was 22.2%. The inhibition [16] was “Active”, the Activity [17] was “inactive” and the Activity [18] was “inactive”. For the same compound, the Activity [19] was 0%, the Activity [20] was 24.2% and the inhibition [21] was “Active”. For the same compound, the Activity [22] was 30%, the Activity [23] was “Active” and the Activity [24] was 0.1%. The Activity [25] was “Active”, the Activity [26] was 100% and the Activity [27] was 26.7%. For the same compound, the Activity [28] was “Dose-Dependent Effect”, the Activity [29] was 21.8% and the Activity [30] was “Active”. For the same compound, the inhibition [31] was “Active”, the inhibition [32] was “Active” and the viability at 1.25 µM [33] was 68.2%. The Activity [34] was 15.4%, the Activity [35] was “Active” and the Activity [36] was 10%.
